Consider eleven compounds from patent publication US10160747B2, “Compounds and methods for kinase modulation, and indications therefor” (Plexxikon Inc., priority 2016, dated 2018).

Assay [1] addresses T1, BA/F3-FLT3-ITD + D835Y (Homo sapiens, UniProt P36888, D835Y, cells depend on it, form not given).
T1 sequence (P36888 with tags, fused parts or gaps INS600HVDFREYEYD/D835Y): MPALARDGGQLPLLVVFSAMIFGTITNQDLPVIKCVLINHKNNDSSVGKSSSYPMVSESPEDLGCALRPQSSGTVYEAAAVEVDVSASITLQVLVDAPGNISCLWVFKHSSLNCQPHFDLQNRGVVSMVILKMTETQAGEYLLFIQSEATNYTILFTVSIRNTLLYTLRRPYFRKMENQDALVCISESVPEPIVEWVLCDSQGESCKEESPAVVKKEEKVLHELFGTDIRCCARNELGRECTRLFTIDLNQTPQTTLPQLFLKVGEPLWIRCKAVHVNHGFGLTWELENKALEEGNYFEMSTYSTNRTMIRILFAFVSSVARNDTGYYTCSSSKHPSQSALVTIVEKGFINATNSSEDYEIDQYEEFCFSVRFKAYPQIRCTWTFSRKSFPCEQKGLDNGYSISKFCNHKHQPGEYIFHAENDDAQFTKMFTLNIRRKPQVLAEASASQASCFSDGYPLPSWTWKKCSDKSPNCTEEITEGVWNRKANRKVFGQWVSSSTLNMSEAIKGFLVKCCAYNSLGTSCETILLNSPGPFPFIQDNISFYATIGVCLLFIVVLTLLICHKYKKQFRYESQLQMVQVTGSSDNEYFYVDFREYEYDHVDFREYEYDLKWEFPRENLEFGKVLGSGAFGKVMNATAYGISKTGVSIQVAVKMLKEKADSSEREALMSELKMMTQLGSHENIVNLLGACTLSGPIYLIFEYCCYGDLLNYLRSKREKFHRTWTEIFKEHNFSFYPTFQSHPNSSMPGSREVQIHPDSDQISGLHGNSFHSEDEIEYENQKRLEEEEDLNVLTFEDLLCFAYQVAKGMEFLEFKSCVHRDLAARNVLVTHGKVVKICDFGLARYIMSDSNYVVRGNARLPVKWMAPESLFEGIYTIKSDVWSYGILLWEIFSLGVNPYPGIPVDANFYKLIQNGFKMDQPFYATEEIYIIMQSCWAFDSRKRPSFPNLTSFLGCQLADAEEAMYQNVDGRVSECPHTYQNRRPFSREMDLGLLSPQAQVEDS
The experiment in a line: Engineered BA/F3 cell growth assay, FLT3 ITD/D835Y. Format: cell-based, murine. Conditions: 3 d growth. In short, it runs like this: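 Murine Ba/F3 cells transfected with full-length FLT3 ITD/D835Y, grown without IL-3 so growth depends on FLT3. Seeded at 1×10^4 cells/well, 8-point 1:3 series to 1 μM top (0.2% DMSO), 3 days at 37 °C. CellTiter-Glo luminescence (ATP) versus concentration gave IC50.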

Assay [2] relates to MOLM-14 D835Y (endogenous FLT3 ITD and transfected FLT3 D835Y). The experiment in a line: MOLM-14 D835Y cell proliferation assay (CellTiter-Glo). Format: cell-based. Conditions: Homo sapiens, MOLM-14, 72 h; 3 d growth, GMean. The method, boiled down:
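MOLM-14 cells (FLT3 ITD) carrying D835Y or F691L, 1×10^4 cells/well, eight 1:3 dilutions from 1 μM final, 0.2% DMSO, 3 days at 37 °C, 5% CO2. Viability by CellTiter-Glo luminescence (ATP content); IC50 from concentration-response.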
On the technique in general: Cellular ATP, detected with luciferase, serves as a proxy for viable cell number.

As for `Cn1cc(Nc2ncc(-c3ccc(CC(=O)Nc4cccnc4)cc3)cn2)cn1` [Compound P-0131, 2-[4-[2-[(1-methylpyrazol-4-yl)amino]pyrimidin-5-yl]phenyl]-N-(3-pyridyl)acetamide], the GI50 in assay [1] was 0.0001 to 10 µM. The same compound came in with an IC50 in assay [2] of 0.0001 to 10 µM.

On to `O=C(Cc1ccc(-c2cnc3[nH]c(-c4ccc(N5CCOCC5)nc4)cc3c2)cn1)Nc1ccnc(C(F)(F)F)c1` [Compound P-0183, 2-[5-[2-(6-morpholino-3-pyridyl)-1H-pyrrolo[2,3-b]pyridin-5-yl]-2-pyridyl]-N-[2-(trifluoromethyl)-4-pyridyl]acetamide], for which the GI50 in assay [1] fell in the range of 0.0001 to 10 µM. Moreover, the IC50 in assay [2] was 0.0001 to 10 µM.

For the compound `COc1ncc(NC(=O)Cc2ccc(-c3cnc(Nc4cn(C)cn4)nc3)cc2F)cc1C(F)(F)F` [Compound P-0101, 2-[2-fluoro-4-[2-[(1-methylimidazol-4-yl)amino]pyrimidin-5-yl]phenyl]-N-[6-methoxy-5-(trifluoromethyl)-3-pyridyl]acetamide], the GI50 in assay [1] fell in the range of 0.0001 to 10 µM. The compound further gave an IC50 in assay [2] of 0.0001 to 10 µM.

On to `N#Cc1cc(-c2cc3cc(-c4ccc(CC(=O)Nc5cncc(C(F)(F)F)c5)cc4F)cnc3[nH]2)ccn1` [Compound P-0199, 2-[4-[2-(2-cyano-4-pyridyl)-1H-pyrrolo[2,3-b]pyridin-5-yl]-3-fluoro-phenyl]-N-[5-(trifluoromethyl)-3-pyridyl]acetamide], for which the GI50 in assay [1] fell in the range of 0.0001 to 10 µM. Also, the concentration for half-maximal inhibition (IC50) in assay [2] was in the range of 0.0001 to 10 µM.

In the case of `Cn1cc(Nc2ncc(-c3ccc(CC(=O)Nc4cccc(OC(F)(F)F)c4)cc3)cn2)cn1` [Compound P-0157, 2-[4-[2-[(1-methylpyrazol-4-yl)amino]pyrimidin-5-yl]phenyl]-N-[3-(trifluoromethoxy)phenyl]acetamide], the GI50 in assay [1] fell in the range of 0.0001 to 10 µM. This compound displayed an IC50 in assay [2] of 0.0001 to 10 µM.

Take `Cn1cc(Nc2ncc(-c3ccc(CC(=O)Nc4cccc(C(F)(F)F)n4)cc3)cn2)cn1` [Compound P-0152, 2-[4-[2-[(1-methylpyrazol-4-yl)amino]pyrimidin-5-yl]phenyl]-N-[6-(trifluoromethyl)-2-pyridyl]acetamide]: the GI50 in assay [1] is 0.0001 to 10 µM. Moreover, in assay [2], the concentration for half-maximal inhibition (IC50) lay in the range of 0.0001 to 10 µM.

For the compound `Cn1cc(Nc2ncc(-c3ccc(CC(=O)Nc4cccc(S(C)(=O)=O)c4)cc3)cn2)cn1` [Compound P-0155, 2-[4-[2-[(1-methylpyrazol-4-yl)amino]pyrimidin-5-yl]phenyl]-N-(3-methylsulfonylphenyl)acetamide], in assay [1], the GI50 was 0.0001 to 10 µM. Moreover, the concentration for half-maximal inhibition (IC50) in assay [2] lay within 0.0001 to 10 µM.

`Cc1n[nH]c2ncc(-c3cc(F)c(CC(=O)Nc4cncc(C(F)(F)F)c4)cc3F)cc12` [Compound P-0173, 2-[2,5-difluoro-4-(3-methyl-1H-pyrazolo[3,4-b]pyridin-5-yl)phenyl]-N-[5-(trifluoromethyl)-3-pyridyl]acetamide]: the GI50 in assay [1] lay within 0.0001 to 10 µM. Besides, the IC50 in assay [2] lay within 0.0001 to 10 µM.

For `COc1ccccc1CNC(=O)Cc1ccc(-c2cnc(Nc3cnn(C)c3)nc2)cc1` [Compound P-0160, N-[(2-methoxyphenyl)methyl]-2-[4-[2-[(1-methylpyrazol-4-yl)amino]pyrimidin-5-yl]phenyl]acetamide], the concentration for 50% growth inhibition (GI50) in assay [1] fell in the range of 0.0001 to 10 µM. In assay [2], the IC50 was in the range of 0.0001 to 10 µM.

Consider `O=C(Cc1ccc(-c2cnc3[nH]c(-c4cnn(C(F)F)c4)cc3c2)c(F)c1)Nc1cncc(C(F)(F)F)c1` [Compound P-0197, 2-[4-[2-[1-(difluoromethyl)pyrazol-4-yl]-1H-pyrrolo[2,3-b]pyridin-5-yl]-3-fluoro-phenyl]-N-[5-(trifluoromethyl)-3-pyridyl]acetamide], for which the GI50 in assay [1] lay within 0.0001 to 10 µM. Also, the IC50 in assay [2] is 0.0001 to 10 µM.

Regarding `Cn1cc(Nc2ncc(-c3ccc(CC(=O)Nc4cncc(C(F)(F)F)c4)cc3)cn2)cn1` [Compound P-0136, 2-[4-[2-[(1-methylpyrazol-4-yl)amino]pyrimidin-5-yl]phenyl]-N-[5-(trifluoromethyl)-3-pyridyl]acetamide], the GI50 in assay [1] was 0.0001 to 10 µM. Moreover, in assay [2], the IC50 lay within 0.0001 to 10 µM.

Broadly, the GI50 is the concentration giving 50% growth inhibition. Usually IC50 stands for the concentration that inhibits the measured activity by half.
